Assay results reported in PMC6311682, “Design, Synthesis, and Biological Evaluation of 2-Nitroimidazopyrazin-one/-es with Antitubercular and Antiparasitic Activity” (Journal of Medicinal Chemistry, 2018).
In brackets after ≈: the same amount, converted by molar mass. Where two headings read alike, the source gives them in different places.

How the values were obtained:
[1] = tested on: L. donovani MHOM/IN/80/DD8 (ATCC50212); test: L. donovani DD8 intracellular (THP-1) amastigote assay; type: cell-based; details: Leishmania donovani
[2] = Kinetic solubility determination by LC-UV; details: room temperature, 1% DMSO
[3] = tested on: C. difficile (630, ATCC BAA-1382); test: Broth microdilution MIC assay, C. difficile; type: cell-based, Clostridium difficile; details: 630 ATCC BAA-1382, median MIC; for MIC: Clostridioides difficile, ATCCBAA1382, read-out: antibacterial MIC C. difficile
[4] = Broth microdilution MIC assay, ESKAPE pathogens; type: cell-based; details: S. aureus, E. coli, K. pneumoniae, A. baumannii, P. aeruginosa; read-out: antibacterial MIC ESKAPE
[5] = tested on: ESKAPE pathogens S. aureus (ATCC 43300), E. coli (ATCC 25922), K. pneumoniae (ATCC 700603), A. baumannii (ATCC 19606), P. aeruginosa (ATCC 27853); test: Broth microdilution MIC assay, ESKAPE pathogens; type: cell-based
[6] = tested on: E. histolytica (HM1:IMSS); test: ATP-bioluminescence cell growth and survival assay, E. histolytica trophozoites; type: cell-based; details: Entamoeba histolytica
[7] = tested on: C. albicans (ATCC 90028) and C. neoformans (H99, ATCC 208821); test: Broth microdilution MIC assay, fungi; type: cell-based; details: for MIC: Candida albicans, read-out: antifungal MIC
[8] = Mammalian cytotoxicity assay (resazurin), HEK293; details: human, HEK293 cells
[9] = Mammalian cytotoxicity assay (resazurin), HepG2; details: human, HepG2 cells
[10] = read-out: antiparasitic IC50 L. donovani
[11] = read-out: antiparasitic pIC50 ± SE L. donovani (converted)
[12] = PBS, pH 7.4, Solubility µM (PBS), PBS pH 7.4, 24 h
[13] = water, Solubility µM (H2O), 24 h
[14] = read-out: antiparasitic IC50 E. histolytica
[15] = read-out: antiparasitic pIC50 ± SE E. histolytica (converted)

SMILES: NC(=O)Cn1ccn2cc([N+](=O)[O-])nc2c1=O [17s, 2-(2-Nitro-8-oxoimidazo[1,2-a]pyrazin-7(8H)-yl)acetamide]
- IC50 [1, 10]: > 80 µM
- IC50 [1, 11]: > 79.4 µM
- solubility at 24 h [2, 12]: > 200 µM
- solubility at 24 h [2, 13]: > 200 µM
- antibacterial MIC C. difficile [3]: >64 µg/mL
- MIC [3]: > 64 µg/mL
- MIC [4]: > 32 µg/mL
- antibacterial MIC ESKAPE [5]: >32 µg/mL
- IC50 [6, 14]: > 50 µM
- IC50 [6, 15]: > 50.1 µM

SMILES: O=[N+]([O-])c1cn2ccnc(OCc3ccccc3OC(F)(F)F)c2n1 [18i, 2-Nitro-8-((2-(trifluoromethoxy)benzyl)oxy)imidazo[1,2-a]pyrazine]
- solubility at 24 h [2, 12]: < 5 µM
- solubility at 24 h [2, 13]: < 5 µM
- MIC [4]: > 32 µg/mL
- antibacterial MIC ESKAPE [5]: >32 µg/mL
- IC50 [6, 14]: > 50 µM
- IC50 [6, 15]: > 50.1 µM

SMILES: O=[N+]([O-])c1cn2ccnc(OCCc3ccc(OC(F)(F)F)cc3)c2n1 [18m, 2-Nitro-8-(4-(trifluoromethoxy)phenethoxy)imidazo[1,2-a]pyrazine]
- MIC [3]: 64 µg/mL (≈ 174 µM)
- MIC [4]: > 32 µg/mL
- antibacterial MIC ESKAPE [5]: >32 µg/mL

SMILES: O=c1c2nc([N+](=O)[O-])cn2cc(-c2ccccc2)n1CCO [24d, 7-(2-Hydroxyethyl)-2-nitro-6-phenylimidazo[1,2-a]pyrazin-8(7H)-one]
- solubility at 24 h [2, 12]: 164 ± 21 µM (≈ 49.2 µg/mL)
- solubility at 24 h [2, 13]: 163 ± 15 µM (≈ 48.9 µg/mL)
- antifungal MIC [7]: >32 µg/mL
- MIC [7]: > 32 µg/mL
- antibacterial MIC C. difficile [3]: >64 µg/mL
- MIC [3]: > 64 µg/mL
- MIC [4]: > 32 µg/mL
- antibacterial MIC ESKAPE [5]: >32 µg/mL

SMILES: Cc1ccc(COc2nc(C)cn3cc([N+](=O)[O-])nc23)cc1 [25i, 6-Methyl-8-((4-methylbenzyl)oxy)-2-nitroimidazo[1,2-a]pyrazine]
- solubility at 24 h [2, 12]: < 5 µM
- solubility at 24 h [2, 13]: < 5 µM
- antifungal MIC [7]: >32 µg/mL
- MIC [7]: > 32 µg/mL
- CC50 at 24 h [8]: > 100 µM
- CC50 at 24 h [9]: > 100 µM
- MIC [4]: > 32 µg/mL
- antibacterial MIC ESKAPE [5]: >32 µg/mL

SMILES: Cc1cn2cc([N+](=O)[O-])nc2c(OCc2cccc(OC(F)(F)F)c2)n1 [25k]
- IC50 [1, 10]: > 40 µM
- IC50 [1, 11]: > 39.8 µM
- MIC [7]: > 32 µg/mL
- CC50 at 24 h [8]: > 100 µM
- CC50 at 24 h [9]: > 100 µM
- MIC [4]: > 32 µg/mL

SMILES: Cc1cn2cc([N+](=O)[O-])nc2c(OCc2ccccc2OC(F)(F)F)n1 [25m, 6-Methyl-2-nitro-8-((2-(trifluoromethoxy)benzyl)oxy)imidazo[1,2-a]pyrazine]
- IC50 [1, 10]: > 40 µM
- IC50 [1, 11]: > 39.8 µM
- solubility at 24 h [2, 12]: < 5 µM
- solubility at 24 h [2, 13]: < 5 µM
- MIC [7]: > 32 µg/mL
- CC50 at 24 h [8]: > 100 µM
- CC50 at 24 h [9]: > 100 µM
- MIC [4]: > 32 µg/mL

SMILES: Cc1c(C)n2cc([N+](=O)[O-])nc2c(=O)n1Cc1cccc(OC(F)(F)F)c1 [26f, 5,6-Dimethyl-2-nitro-7-(3-(trifluoromethoxy)benzyl)imidazo[1,2-a]pyrazin-8(7H)-one]
- solubility at 24 h [2, 12]: 15.7 ± 0.404 µM (≈ 6 µg/mL)
- solubility at 24 h [2, 13]: 15.9 ± 1.55 µM (≈ 6.08 µg/mL)
- antifungal MIC [7]: >32 µg/mL
- MIC [7]: > 32 µg/mL
- CC50 at 24 h [9]: 25.6 to 80 µM
- MIC [4]: > 32 µg/mL
- antibacterial MIC ESKAPE [5]: >32 µg/mL

SMILES: Cc1c(C)n2cc([N+](=O)[O-])nc2c(=O)n1Cc1ccccc1OC(F)(F)F [26h, 5,6-Dimethyl-2-nitro-7-(2-(trifluoromethoxy)benzyl)imidazo[1,2-a]pyrazin-8(7H)-one]
- solubility at 24 h [2, 12]: 4.6 ± 0.6 µM (≈ 1.76 µg/mL)
- solubility at 24 h [2, 13]: 7.28 ± 0.695 µM (≈ 2.78 µg/mL)
- antifungal MIC [7]: >32 µg/mL
- MIC [7]: > 32 µg/mL
- CC50 at 24 h [8]: > 100 µM
- CC50 at 24 h [9]: > 100 µM
- MIC [4]: > 32 µg/mL
- antibacterial MIC ESKAPE [5]: >32 µg/mL

SMILES: Cc1nc(OCc2ccccc2OC(F)(F)F)c2nc([N+](=O)[O-])cn2c1C [26i, 5,6-Dimethyl-2-nitro-8-((2-(trifluoromethoxy)benzyl)oxy)imidazo[1,2-a]pyrazine]
- solubility at 24 h [2, 12]: < 5 µM
- solubility at 24 h [2, 13]: < 5 µM
- antifungal MIC [7]: >32 µg/mL
- MIC [7]: > 32 µg/mL
- CC50 at 24 h [8]: > 100 µM
- CC50 at 24 h [9]: > 100 µM
- MIC [4]: > 32 µg/mL
- antibacterial MIC ESKAPE [5]: >32 µg/mL

SMILES: NC(=O)c1nc([N+](=O)[O-])cn1Cc1ccccc1 [28b]
- CC50 at 24 h [8]: > 100 µM
- CC50 at 24 h [9]: > 100 µM

SMILES: Cc1ccc(Cn2cc([N+](=O)[O-])nc2C(N)=O)cc1 [28d]
- CC50 at 24 h [8]: > 100 µM
- CC50 at 24 h [9]: > 100 µM
